Columns and labels:
[1] = tested on: TNF-alpha (tumor necrosis factor alpha); assay: Inhibition of upregulation of inflammatory mediators: TNF-alpha; details: according to the dose and even at low concentrations
Description: (§1) It can therefore be used as an outstanding alternative or as an addition to other already well-known anti-inflammatory compounds (active substances) in cosmetic and pharmaceutical preparations or similar as an anti-inflammatory active substance.

PGE-2 (prostaglandin E2) = assay: Inhibition of upregulation of inflammatory mediators: PGE-2; details: according to the dose and even at low concentrations
Description: as §1

IL-6 = assay: Inhibition of upregulation of inflammatory mediators: IL-6; details: according to the dose and even at low concentrations
Description: as §1

[2] = Sensitization and irritation test of the compound itself; details: test concentration of 50% by weight
Description: The inventive compound of formula 1 with an anti-inflammatory effect can also be used as a component of inventive scent compositions (odorous substance compositions) and for example to give a perfumed finished product an anti-inflammatory effect. Since the proportion of perfume in a cosmetic finished product is often around 1% by weight, a scent containing the inventive compound of formula 1, will preferably include or be comprised approximately 1-50% by weight of the compound of formula 1.

[3] = Investigations of the chemical characteristics (stability); assay type: physicochemical
Description: Furthermore, once the inventive compound of formula 1 had been incorporated into inventive cosmetic and pharmaceutical preparations no discoloration of this preparation was detected.

IL-1 = assay: Inhibition of upregulation of inflammatory mediators: IL-1; details: according to the dose and even at low concentrations
Description: as §1

photostability [3]: high photostability
temperature stability [3]: high temperature stability
stability in a broad pH range ([3]; broad pH range): high stability in a broad pH range
Structure (SMILES): COc1cc(CCC(=O)c2ccc(O)cc2)ccc1O [compound of formula 1, 3-(4-hydroxy-3-methoxyphenyl)-1-(4-hydroxyphenyl)-1-propanone]
upregulation of TNF-alpha caused by extrinsic and intrinsic factors [1]: inhibiting the upregulation
upregulation of PGE-2 caused by extrinsic and intrinsic factors (PGE-2 (prostaglandin E2)): inhibiting the upregulation
upregulation of IL-6 caused by extrinsic and intrinsic factors (IL-6): inhibiting the upregulation
irritation [2]: did not cause irritation
sensitization [2]: not sensitizing
upregulation of IL-1 caused by extrinsic and intrinsic factors (IL-1): inhibiting the upregulation
